Experimental data as given in ChEMBL document CHEMBL1255553, “Unusual antimalarial meroditerpenes from tropical red macroalgae” (Bioorg Med Chem Lett, 2010).
Values after ≈ are worked out from the molar mass of the structure shown.

Tests used:
Plasmodium falciparum = experiment: Antimalarial activity against Plasmodium falciparum; format: functional, organism-based
Staphylococcus aureus = experiment: Antimicrobial activity against methicillin-resistant Staphylococcus aureus; format: functional
Candida albicans = experiment: Antimicrobial activity against amphotericin B-resistant Candida albicans; format: functional
Enterococcus faecium = experiment: Antimicrobial activity against vancomycin-resistant Enterococcus faecium; format: functional
SHP77 = experiment: Anticancer activity against human SHP77 cells; format: functional, cell-based
CCRF-CEM = experiment: Anticancer activity against human CCRF-CEM cells; format: functional, cell-based

CC1=C2Cc3cc(ccc3O)C(=O)O[C@H](C(C)(C)Br)CC[C@](C)(O)[C@H](Br)CC[C@]2(C)[C@@H](Br)CC1
IC50 (Plasmodium falciparum): 0.7 µM
MIC (Staphylococcus aureus): 5.9 µM (≈ 3.93 µg/mL)
MIC (Candida albicans): 49 µM (≈ 32.6 µg/mL)
MIC (Enterococcus faecium): 5.9 µM (≈ 3.93 µg/mL)

CC1=C2Cc3cc(ccc3O)C(=O)O[C@H](C(C)(C)O)CC[C@]3(C)O[C@H]3C/C=C(\C)C2CC1 (some centres not stated)
IC50 (Plasmodium falciparum): > 100 µM
MIC (Candida albicans): > 500 µM

Cc1cc(O)c(C)c(CC[C@](C)(O)CCC[C@H](C)CCC[C@H](C)CCCC(C)C)c1O
IC50 (Plasmodium falciparum): 190 µM
MIC (Staphylococcus aureus): > 500 µM
MIC (Enterococcus faecium): > 500 µM

Cc1cc(O)cc(CC[C@](C)(O)CCC[C@H](C)CCC[C@H](C)CCCC(C)C)c1O
MIC (Plasmodium falciparum): 220 µM (≈ 92.5 µg/mL)
MIC (Staphylococcus aureus): > 500 µM
MIC (Enterococcus faecium): > 500 µM

CC1=CC(=O)C=C(CC[C@](C)(O)CCC[C@H](C)CCC[C@H](C)CCCC(C)C)C1=O
IC50 (Plasmodium falciparum): 10 µM
MIC (Staphylococcus aureus): > 500 µM
MIC (Candida albicans): > 500 µM
MIC (Enterococcus faecium): > 500 µM

CC(C)=CCC[C@@](C)(O)[C@@H]1CC/C(C)=C/CC/C(C)=C/Cc2cc(ccc2O)C(=O)O1 [CALLOPHYCOLIDE A]
IC50 (Plasmodium falciparum): 5.2 µM
IC50 (SHP77): 9.2 µM
IC50 (CCRF-CEM): 7.5 µM
MIC (Staphylococcus aureus): 9.1 µM (≈ 3.88 µg/mL)
MIC (Candida albicans): > 250 µM
MIC (Enterococcus faecium): 9.1 µM (≈ 3.88 µg/mL)
